# Patent US10849989B2, “Isolated composite drug and carrier nanoparticles” (University of Limerick, priority 2016, dated 2020)
# What was measured:
# [1] = isoelectric point; cited from earlier work
# [2] = Zeta potential determination (electrophoretic light scattering, Malvern Zetasizer Nano ZSP); assay type: physicochemical; conditions: particles without surface treatment agent, suspension in water, 25° C.
# Experimental: Zeta potential can be determined from electrophoretic mobility using the Smoluchowski calculation. The electrophoretic mobility value can be determined at 25° C. by electrophoretic light scattering (ELS), e.g. using a Malvern Zetasizer Nano ZSP system. Such commercially available ELS instrumentation will directly provide zeta potential values. Aqueous suspensions are filled into a folded capillary cell and equilibrated at 25° C. for 120 seconds before measurement. Three measurements are taken per run and each sample is run twice. The average value and the variation between measurements can be reported.
# Unless otherwise stated, reference to zeta potential is a reference to the zeta potential of a suspension of the particles in water at neutral pH (pH 7) at standard ambient temperature and pressure (SATP, 25° C. and 100 kPa).
# Zetapotential measurements were conducted on a Malvern Zetasizer Nano ZSP system. Zetapotential was determined from the electrophoretic mobility using the Smoluchowski approximation. The samples (without dilution) were filled into a folded capillary cell and equilibrated at 25° C. for 120 s before measurement. Three measurements were taken per run and each sample was run twice. The average value and the variation between measurements were reported.
# [3] = Drug loading of nanoparticles on carrier; assay type: physicochemical; conditions: on the PA-MMT carrier (4.6 mg PA/g MMT)
# Excerpt: The drug loading in % w/w is the amount of drug in grams per 100 g of functionalised carrier particles. A high drug loading is beneficial for delivering a sufficient dose to a patient. In embodiments the composite has a drug loading of at least 2, 4, 6, 8, 9, 10, 15, 20, 30, 40 or 50% w/w. In embodiments the composite has a drug loading of no more than 100, 90, 80 or 70% w/w.
# The drug loading (% w/w) can also be determined by dissolution testing whereby a known mass of dry drug loaded carrier particles is dissolved in a known volume of dissolution media. […] The concentration of drug in the dissolution media is measured by UV/Vis and/or HPLC spectroscopic methods until it stops increasing with time. The mass of drug present on the known mass of drug loaded carrier particles can thus be estimated and the drug loading in (% w/w) can be calculated.
# Nanoparticles of both fenofibrate (FF) and mefenamic acid (MEF) were generated by antisolvent precipitation. An organic solution of FF in ethanol (1 mL, 50 mg/mL) was quickly introduced by Eppendorf pipet to 10 mL antisolvent containing (a) water, (b) an MMT suspension in water (50 mg/mL, equilibrated for >2 hrs) or (c) a protamine-modified MMT suspension in water (50 mg/mL, 4.6-189.9 mg PA/g MMT, equilibrated for >2 hrs). Solutions/suspensions were maintained at 25° C. under rapid agitation (800 rpm) throughout the precipitation process. […]
# [4] = Particle size analysis by laser diffraction (Malvern Mastersizer 3000); assay type: physicochemical; conditions: water as dispersion medium
# Experimental: Particle size can be determined by laser diffraction, for example using a Malvern Mastersizer 3000.
# Particle size measurements were performed by laser diffraction using a Malvern Mastersizer 3000, with water as the dispersion medium. In cases where the particle size was not stable, HPMC and SDS were added to the water dispersant at a concentration of 0.038 mg/mL each to minimise variation between consecutive measurements. Precipitated drug suspensions were diluted by a factor of 5 with water prior to their introduction to the measurement vessel. An MMT control was treated by the conditions used during antisolvent precipitation before measuring its particles size. An obscuration rate of 7-10%, a stir rate of 2300 rpm, a 1 min pre-measurement delay (including 20 sec with 5% sonication power) were the conditions used during all size measurements. A refractive index of 1.55 and an absorption index of 0.01 were used for FF measurements. A refractive index of 1.55 and an absorption index of 0.1 were used for MMT measurements. Four measurements were taken per run and each sample was run twice. The D50 was reported for each size distribution and averaged across all measurements. Measurement variations were also reported.
zeta potential [2] [mV],drug loading [3] [%],particle size D50 [4] [μm],Compound,pI [1]
,,,C[C@H](N)C(=O)O [Alanine],6.00
−35.3,4.8,0.84±0.05,Cc1cccc(Nc2ccccc2C(=O)O)c1C [mefenamic acid],
,,,Avidin [Avidin (glycoprotein)],10.5
,,,Galatine B,5
,,,Gelatine A,6-9
